From ChEMBL document CHEMBL3046819, “Synthesis and antimicrobial activity of new pyridine derivatives-I” (2011) come the findings set out here.

Type in all cases: functional
What all share (details): read-out: IZ

Test [1] deals with Bacillus subtilis. Description: Antibacterial activity against Bacillus subtilis ATCC 6633 at 100 ug/ml by cup-plate method.
Test [2] concerns Escherichia coli. Put plainly: Antibacterial activity against Escherichia coli ATCC 25922 at 200 ug/ml by cup-plate method.
Test [3] deals with Pseudomonas aeruginosa. Put plainly: Antibacterial activity against Pseudomonas aeruginosa ATCC 9027 at 200 ug/ml by cup-plate method.
In test [4] the test system is Candida albicans. Put plainly: Antifungal activity against Candida albicans ATCC 10231 at 200 ug/ml by cup-plate method.
The test system of test [5] is Candida albicans. Description: Antifungal activity against Candida albicans ATCC 10231 at 100 ug/ml by cup-plate method.
Test [6] concerns Staphylococcus aureus. Description: Antibacterial activity against Staphylococcus aureus ATCC 9144 at 200 ug/ml by cup-plate method.
Test [7] relates to Bacillus subtilis. Description: Antibacterial activity against Bacillus subtilis ATCC 6633 at 200 ug/ml by cup-plate method.
Test [8] deals with Escherichia coli. Description: Antibacterial activity against Escherichia coli ATCC 25922 at 100 ug/ml by cup-plate method.
In test [9] the test system is Staphylococcus aureus. Put plainly: Antibacterial activity against Staphylococcus aureus ATCC 9144 at 100 ug/ml by cup-plate method.
Test [10] has as its system Pseudomonas aeruginosa. Description: Antibacterial activity against Pseudomonas aeruginosa ATCC 9027 at 100 ug/ml by cup-plate method.

With `O=C(c1cccnc1Nc1nc2cc([N+](=O)[O-])ccc2s1)N1CCN(CCO)CC1`, the zone of inhibition at 100 µg/mL was determined as 8 mm in test [1]; 2 mm in test [5]; 4 mm in test [8]; 6 mm in test [9]; 7 mm in test [10]. In addition, the zone of inhibition at 200 µg/mL in test [2] came out at 8 mm; in test [3], 7 mm; in test [4] it was 4 mm; in test [6], 11 mm; in test [7], 8 mm.
As for `O=C(c1cccnc1Nc1nc2c(Cl)cccc2s1)N1CCNC(Cl)C1Cl` (stereo not given), the zone of inhibition at 100 µg/mL is 3 mm in test [1]; 3 mm in [5]; 4 mm in [8]; 3 mm in test [9]; 3 mm in [10]. The zone of inhibition at 200 µg/mL in test [2] amounted to 5 mm; in test [3] it was 3 mm; in test [4], 6 mm; in test [6], 4 mm; in test [7], 6 mm.
Take `Cc1cccc2sc(Nc3ncccc3C(=O)N3CCN(CCO)CC3)nc12`: the zone of inhibition at 100 µg/mL in test [1] was determined as 7 mm; in [5], 0 mm; in test [8], 3 mm; in [9], 4 mm; in test [10] it was 6 mm. Also, the zone of inhibition at 200 µg/mL in test [2] was found to be 7 mm; in test [3] it was 7 mm; in test [4], 0 mm; in [6], 5 mm; in test [7] it was 10 mm.
Turning to `COc1ccc2nc(Nc3ncccc3C(=O)N3CCNC(Cl)C3Cl)sc2c1` (stereo not given), the zone of inhibition at 200 µg/mL in test [2] was found to be 9 mm; in test [3], 7 mm; in [4], 6 mm; in [6], 6 mm; in [7] it was 2 mm. The zone of inhibition at 100 µg/mL in [5] was determined as 4 mm; in test [8], 8 mm; in [9], 5 mm; in test [10], 4 mm.
Take `COc1ccc2nc(Nc3ncccc3C(=O)N3CCN(CCO)CC3)sc2c1`: the zone of inhibition at 100 µg/mL amounted to 0 mm in test [1]; 0 mm in test [5]; 8 mm in test [8]; 8 mm in test [9]; 4 mm in test [10]. Further, the zone of inhibition at 200 µg/mL worked out at 8 mm in test [2]; 5 mm in test [3]; 5 mm in [4]; 9 mm in test [6]; 4 mm in test [7].
Turning to `O=C(c1cccnc1Nc1nc2cc(Cl)ccc2s1)N1CCNC(Cl)C1Cl` (stereo not given), the zone of inhibition at 100 µg/mL in test [1] worked out at 5 mm; in test [5], 1 mm; in test [8], 2 mm; in [9], 0 mm; in [10], 0 mm. The zone of inhibition at 200 µg/mL in test [2] came to 3 mm; in test [3], 2 mm; in test [4], 2 mm; in test [6], 0 mm; in [7], 5 mm.
`CC1(C)S[C@@H]2[C@H](NC(=O)Cc3ccccc3)C(=O)N2[C@H]1C(=O)O` [PENICILLIN G]: the zone of inhibition at 100 µg/mL was found to be 14 mm in [1], 14 mm in [8], 12 mm in test [9] and 13 mm in test [10]. For the same compound, the zone of inhibition at 200 µg/mL in test [2] is 25 mm; in test [3], 22 mm; in test [6], 21 mm; in [7] it was 25 mm.
Turning to `C[C@@H]1[C@H](O)[C@@H](C)/C=C/C=C/C=C/C=C/C=C/C=C/C=C/[C@H](O[C@@H]2O[C@H](C)[C@@H](O)[C@H](N)[C@@H]2O)C[C@@H]2O[C@](O)(C[C@@H](O)C[C@@H](O)[C@H](O)CC[C@@H](O)C[C@@H](O)CC(=O)O[C@H]1C)C[C@H](O)[C@H]2C(=O)O` [AMPHOTERICIN B], the zone of inhibition at 200 µg/mL in test [4] was determined as 18 mm. In addition, the zone of inhibition at 100 µg/mL in [5] was determined as 8 mm.
Consider `O=C(c1cccnc1Nc1nc2ccc(Cl)cc2s1)N1CCNC(Cl)C1Cl` (stereo not given), for which the zone of inhibition at 100 µg/mL in test [1] worked out at 5 mm; in test [5] it was 0 mm; in test [8] it was 7 mm; in [9], 7 mm; in test [10], 8 mm. The zone of inhibition at 200 µg/mL in test [2] stood at 9 mm; in [3], 8 mm; in test [4], 1 mm; in test [6], 10 mm; in test [7], 6 mm.
For `COc1cccc2sc(Nc3ncccc3C(=O)N3CCN(CCO)CC3)nc12`, the zone of inhibition at 100 µg/mL in [1] was determined as 6 mm; in test [5] it was 4 mm; in test [8], 3 mm; in test [9], 6 mm; in test [10] it was 7 mm. The zone of inhibition at 200 µg/mL in test [2] was 3 mm; in test [3] it was 9 mm; in test [4], 4 mm; in [6] it was 8 mm; in [7] it was 10 mm.
Take `CC1(C)S[C@@H]2[C@H](NC(=O)[C@H](N)c3ccccc3)C(=O)N2[C@H]1C(=O)O` [AMPICILLIN]: the zone of inhibition at 100 µg/mL is 17 mm in test [1], 18 mm in [8], 15 mm in [9] and 18 mm in test [10]. In addition, the zone of inhibition at 200 µg/mL in test [2] came to 30 mm; in [3], 31 mm; in test [6], 28 mm; in test [7] it was 30 mm.
For `O=C(c1cccnc1Nc1nc2ccc([N+](=O)[O-])cc2s1)N1CCNC(Cl)C1Cl` (stereo not given), the zone of inhibition at 100 µg/mL in test [1] came to 7 mm; in test [5], 0 mm; in test [8] it was 6 mm; in [9], 8 mm; in test [10], 6 mm. The zone of inhibition at 200 µg/mL was determined as 6 mm in test [2]; 8 mm in test [3]; 3 mm in test [4]; 8 mm in test [6]; 7 mm in test [7].
For the compound `CC1(C)S[C@@H]2[C@H](NC(=O)[C@H](N)c3ccc(O)cc3)C(=O)N2[C@H]1C(=O)O` [AMOXICILLIN], the zone of inhibition at 100 µg/mL in [1] stood at 16 mm; in test [8], 16 mm; in [9] it was 13 mm; in [10], 15 mm. Moreover, the zone of inhibition at 200 µg/mL in test [2] came to 28 mm; in [3] it was 27 mm; in test [6], 24 mm; in test [7], 29 mm.
